Where two headings read alike, the source gives them in different places.
Target: [35S]-TBPS binding, rat brain cortical membranes
Test: Steroid inhibition of [35S]-TBPS binding
Details: in the presence of 5 mM GABA, read-out: TBPS IC50
Outline: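 Washed P2 cortical membranes from Sprague-Dawley rats, in 200 mM NaCl/50 mM Na-K phosphate pH 7.4, incubated 90 min at room temp with 3 nM [35S]-TBPS, […] GABA and test drug (0.5% DMSO final). Nonspecific binding defined with […] unlabeled TBPS; filtration and scintillation counting. IC50 and Imax from non-linear curve fits, means±SEM of experiments.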

## CC[C@]12CC[C@H]3[C@@H](CC[C@@H]4C[C@](C)(O)CCC[C@@]43C)[C@@H]1CC[C@@H]2C(C)=O [Example 29, 1-((1S,3aS,3bR,5aR,7R,10aS,10bS,12aS)-12a-ethyl-7-hydroxy-7,10a-dimethyloctadecahydrocyclohepta[a]cyclopenta[f]naphthalen-1-yl)ethanone]
Table 4, 3 nM [35S]-TBPS
  IC50: < 100 nM

## CC(=O)[C@H]1CCC[C@H]2[C@@H]3CC[C@@H]4C[C@](C)(O)CC[C@@H]4[C@H]3CC[C@@H]21 [Example 77, 1-((1S,4aS,4bR,6aR,8R,10aS,10bR,12aS)-8-hydroxy-8-methyloctadecahydrochrysen-1-yl)-ethanone]
Table 5, 3 nM [35S]-TBPS
  IC50: < 100 nM

## CC[C@]12CC[C@H]3[C@@H](CC[C@@H]4CC[C@@](O)(COC)CC[C@@H]43)[C@@H]1CC[C@@H]2C(=O)Cn1cc(C#N)cn1 [Example 31, 1-(2-((1S,3aS,3bR,5aR,8S,10aS,10bR,12aS)-12a-ethyl-8-hydroxy-8-(methoxymethyl)octadecahydrocyclohepta[a]cyclopenta[f]naphthalen-1-yl)-2-oxoethyl)-1H-pyrazole-4-carbonitrile]
Table 4, 3 nM [35S]-TBPS
  IC50: 100 to 1000 nM

## COC[C@]1(O)CC[C@H]2CC[C@@H]3[C@H](CC[C@]4(C)[C@@H](C(=O)Cn5cc(C#N)cn5)CCC[C@@H]34)[C@H]2CC1 [Example 46, 1-(2-((1S,4aS,4bR,6aR,9S,11aS,11bR,13aS)-9-hydroxy-9-(methoxymethyl)-13a-methyloctadecahydro-1H-cyclohepta[a]phenanthren-1-yl)-2-oxoethyl)-1H-pyrazole-4-carbonitrile]
Table 4, 3 nM [35S]-TBPS
  IC50: 100 to 1000 nM

## CC[C@]12CC[C@@](C)(O)C[C@H]1CC[C@H]1[C@@H]3CCCC[C@H](C(C)=O)[C@@]3(C)CC[C@@H]12 [Example 22]
Table 4, 3 nM [35S]-TBPS
  IC50: < 100 nM

## CC[C@@]1(O)CCC[C@H]2[C@H](CC[C@@H]3[C@@H]2CC[C@]2(C)[C@@H](C(C)=O)CCC[C@@H]32)C1 [Example 13, 1-((1S,4aS,4bR,6aR,8R,11aS,11bR,13aS)-8-ethyl-8-hydroxy-13a-methyloctadecahydro-1H-cyclohepta[a]phenanthren-1-yl)ethan-1-one]
Table 4, 3 nM [35S]-TBPS
  IC50: 100 to 1000 nM

## COC[C@]1(O)CC[C@H]2CC[C@@H]3[C@H](CC[C@]4(C)[C@@H](C(=O)Cn5cc(C#N)cn5)CCC[C@@H]34)[C@@]2(C)CC1 [Example 55, 1-(2-((1S,4aS,4bR,6aR,9S,11aS,11bS,13aS)-9-hydroxy-9-(methoxymethyl)-11a,13a-dimethyloctadecahydro-1H-cyclohepta[a]phenanthren-1-yl)-2-oxoethyl)-1H-pyrazole-4-carbonitrile]
Table 4, 3 nM [35S]-TBPS
  IC50: 100 to 1000 nM

## CC(=O)[C@H]1CC[C@H]2[C@@H]3CC[C@@H]4C[C@](C)(O)CC[C@@H]4[C@H]3CC[C@@H]21 [Example 66]
Table 5, 3 nM [35S]-TBPS
  IC50: < 100 nM

## Cc1nnnn1CC(=O)[C@H]1CCCC[C@H]2[C@@H]3CC[C@@H]4C[C@](C)(O)CCC[C@]4(C)[C@H]3CC[C@]12C [Example 63, 1-((1S,5aS,5bR,7aR,9R,12aS,12bS,14aS)-9-hydroxy-9,12a,14a-trimethylicosahydrodicyclohepta[a,f]naphthalen-1-yl)-2-(5-methyl-1H-tetrazol-1-yl)ethanone]
Table 4, 3 nM [35S]-TBPS
  IC50: 100 to 1000 nM

## CC[C@]12CC[C@H]3[C@@H](CC[C@@H]4CC[C@@](O)(COC)CC[C@@H]43)[C@@H]1CC[C@@H]2C(C)=O [Example 32, 1-((1S,3aS,3bR,5aR,8S,10aS,10bR,12aS)-12a-ethyl-8-hydroxy-8-(methoxymethyl)octadecahydrocyclohepta[a]cyclopenta[f]naphthalen-1-yl)ethanone]
Table 4, 3 nM [35S]-TBPS
  IC50: 100 to 1000 nM

## CC(=O)[C@H]1CCC[C@H]2[C@@H]3CC[C@H]4C[C@](C)(O)CC[C@@H]4[C@H]3CC[C@@H]21 [Example 79, 1-((1S,4aS,4bR,6aS,8R,10aS,10bR,12aS)-8-hydroxy-8-methyloctadecahydrochrysen-1-yl)-ethanone]
Table 5, 3 nM [35S]-TBPS
  IC50: 100 to 1000 nM

## Cc1nnn(CC(=O)[C@H]2CCC[C@H]3[C@@H]4CC[C@H]5C[C@](C)(O)CC[C@@H]5[C@H]4CC[C@@H]32)n1 [Example 80, 1-((1S,4aS,4bR,6aS,8R,10aS,10bR,12aS)-8-hydroxy-8-methyloctadecahydrochrysen-1-yl)-2-(5-methyl-2H-tetrazol-2-yl)ethanone]
Table 5, 3 nM [35S]-TBPS
  IC50: < 100 nM

## Cc1nnnn1CC(=O)[C@@H]1CCCC[C@H]2[C@@H]3CC[C@@H]4C[C@](C)(O)CCC[C@]4(C)[C@H]3CC[C@]12C [Example 65, 1-((1R,5aS,5bR,7aR,9R,12aS,12bS,14aS)-9-hydroxy-9,12a,14a-trimethylicosahydrodicyclohepta[a,f]naphthalen-1-yl)-2-(5-methyl-1H-tetrazol-1-yl)ethanone]
Table 4, 3 nM [35S]-TBPS
  IC50: > 1000 nM

## Cc1nnn(CC(=O)[C@H]2CC[C@H]3[C@@H]4CC[C@H]5C[C@](C)(O)CC[C@@H]5[C@H]4CC[C@@H]32)n1 [Example 73, 1-((3R,5S,8R,9R,10S,13S,14S,17S)-3-hydroxy-3-methylhexadecahydro-1H-cyclopenta[a]phenanthren-17-yl)-2-(5-methyl-2H-tetrazol-2-yl)ethanone]
Table 5, 3 nM [35S]-TBPS
  IC50: > 1000 nM

## C[C@@]1(O)CCC[C@H]2[C@H](CC[C@@H]3[C@@H]2CC[C@]2(C)[C@@H](C(=O)Cn4cc(C#N)cn4)CCC[C@@H]32)C1 [Example 10]
Table 4, 3 nM [35S]-TBPS
  IC50: < 100 nM

## CC[C@]12CC[C@@](C)(O)C[C@H]1CC[C@H]1[C@@H]3CC[C@H](C(=O)Cn4nnnc4C)[C@H]3CC[C@@H]12 [Example 82, 1-((3R,5R,8S,9S,10S,13S,14S,17S)-10-ethyl-3-hydroxy-3-methylhexadecahydro-1H-cyclopenta[a]phenanthren-17-yl)-2-(5-methyl-1H-tetrazol-1-yl)ethanone]
Table 5, 3 nM [35S]-TBPS
  IC50: < 100 nM

## CC[C@]12CC[C@@](C)(O)C[C@H]1CC[C@H]1[C@@H]3CCCC[C@H](C(=O)Cn4cc(C#N)cn4)[C@@]3(C)CC[C@@H]12 [Example 24]
Table 4, 3 nM [35S]-TBPS
  IC50: < 100 nM

## CC(=O)[C@H]1CCC[C@H]2[C@@H]3CC[C@@H]4C[C@](C)(O)CCC[C@]4(C)[C@H]3CC[C@]12C [Example 15, 1-((1S,4aS,4bR,6aR,8R,11aS,11bS,13aS)-8-hydroxy-8,11a,13a-trimethyloctadecahydro-1H-cyclohepta[a]phenanthren-1-yl)ethan-1-one]
Table 4, 3 nM [35S]-TBPS
  IC50: < 100 nM

## CC[C@]1(O)CC[C@H]2CC[C@@H]3[C@H](CC[C@]4(C)[C@@H](C(=O)Cn5cc(C#N)cn5)CCC[C@@H]34)[C@H]2CC1 [Example 50]
Table 4, 3 nM [35S]-TBPS
  IC50: 100 to 1000 nM

## C[C@]1(O)CC[C@H]2CC[C@@H]3[C@H](CC[C@]4(C)[C@H](C(=O)Cn5cc(C#N)cn5)CCC[C@@H]34)[C@H]2CC1 [Example 3]
Table 4, 3 nM [35S]-TBPS
  IC50: > 1000 nM

## Cc1nnn(CC(=O)[C@@H]2CCCC[C@H]3[C@@H]4CC[C@@H]5C[C@](C)(O)CCC[C@]5(C)[C@H]4CC[C@]23C)n1 [Example 64]
Table 4, 3 nM [35S]-TBPS
  IC50: 100 to 1000 nM

## CC(=O)[C@H]1CCCC[C@H]2[C@@H]3CC[C@@H]4C[C@](C)(O)CCC[C@]4(C)[C@H]3CC[C@]12C [Example 59, 1-((1S,5aS,5bR,7aR,9R,12aS,12bS,14aS)-9-hydroxy-9,12a,14a-trimethylicosahydrodicyclohepta[a,f]naphthalen-1-yl)ethanone]
Table 4, 3 nM [35S]-TBPS
  IC50: 100 to 1000 nM

## CC(=O)[C@@H]1CC[C@H]2[C@@H]3CC[C@@H]4C[C@](C)(O)CC[C@@H]4[C@H]3CC[C@@H]21 [Example 67, 1-((3R,5R,8R,9R,10S,13S,14S,17R)-3-hydroxy-3-methylhexadecahydro-1H-cyclopenta[a]phenanthren-17-yl)ethan-1-one]
Table 5, 3 nM [35S]-TBPS
  IC50: > 1000 nM

Source: US20260098053A1, “COMPOSITIONS AND METHODS FOR TREATING CNS DISORDERS” (SAGE THERAPEUTICS, INC., priority 2019, published 2026)
